What was measured:
Experiment in all cases: Eurofins kinase selectivity profile against 380 other human recombinant kinases (Table S2)
Type in all cases: biochemical
[1] = molecular target: T1, 380 human recombinant protein kinases (Homo sapiens, UniProt O14757); conditions: CHK1(h), read-out: Inhibition rate
T1 construct: purchased Eurofins (Celle Lévescault)
T1 sequence (O14757 1-476): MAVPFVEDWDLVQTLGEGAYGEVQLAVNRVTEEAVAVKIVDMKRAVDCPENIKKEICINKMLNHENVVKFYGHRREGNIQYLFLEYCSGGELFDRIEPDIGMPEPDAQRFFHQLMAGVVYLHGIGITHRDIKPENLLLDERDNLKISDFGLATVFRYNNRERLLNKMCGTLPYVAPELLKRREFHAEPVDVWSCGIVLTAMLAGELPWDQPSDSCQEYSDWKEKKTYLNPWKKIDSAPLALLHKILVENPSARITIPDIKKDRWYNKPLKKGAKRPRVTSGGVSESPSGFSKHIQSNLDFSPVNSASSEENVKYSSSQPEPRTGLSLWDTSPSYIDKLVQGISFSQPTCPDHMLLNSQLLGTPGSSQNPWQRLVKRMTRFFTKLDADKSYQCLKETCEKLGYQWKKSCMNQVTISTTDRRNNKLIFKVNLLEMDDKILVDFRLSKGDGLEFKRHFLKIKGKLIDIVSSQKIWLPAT
How it was run: (§1)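 The inhibitor was sent to a contract lab and screened at various concentrations against 380 human recombinant protein kinases. This served as a counter-screen for MK2 specificity.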

[2] = molecular target: T2, 380 human recombinant protein kinases (Homo sapiens, UniProt P04629); conditions: TrkA(h), read-out: Inhibition rate (%)
T2 construct: purchased Eurofins (Celle Lévescault)
How it was run: as §1

[3] = molecular target: T3, 380 human recombinant protein kinases (Homo sapiens, UniProt P22607); conditions: FGFR3(h), read-out: Inhibition rate
T3 construct: purchased Eurofins (Celle Lévescault)
How it was run: as §1

[4] = molecular target: T4, 380 human recombinant protein kinases (Homo sapiens, UniProt P46734); conditions: MKK3(h), read-out: Inhibition rate
T4 construct: purchased Eurofins (Celle Lévescault)
T4 sequence (P46734 1-347): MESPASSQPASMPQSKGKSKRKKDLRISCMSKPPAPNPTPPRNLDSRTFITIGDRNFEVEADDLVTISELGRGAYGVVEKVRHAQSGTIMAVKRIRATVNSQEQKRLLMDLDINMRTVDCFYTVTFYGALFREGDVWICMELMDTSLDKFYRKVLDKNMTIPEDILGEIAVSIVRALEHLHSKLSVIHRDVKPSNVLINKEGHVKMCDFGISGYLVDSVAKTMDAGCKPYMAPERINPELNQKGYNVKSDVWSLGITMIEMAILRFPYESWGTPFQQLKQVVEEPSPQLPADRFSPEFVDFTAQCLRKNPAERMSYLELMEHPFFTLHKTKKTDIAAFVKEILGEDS
How it was run: as §1

[5] = molecular target: T5, 380 human recombinant protein kinases (Homo sapiens, UniProt P54756); conditions: EphA5(h), read-out: Inhibition rate
T5 construct: purchased Eurofins (Celle Lévescault)
How it was run: as §1

[6] = molecular target: T6, 380 human recombinant protein kinases (Homo sapiens, UniProt Q13315); conditions: ATM(h), read-out: Inhibition rate (%)
T6 construct: purchased Eurofins (Celle Lévescault)
How it was run: as §1

[7] = molecular target: T7, 380 human recombinant protein kinases (Homo sapiens, UniProt Q5TCX8); conditions: MLK4(h), read-out: Inhibition rate
T7 construct: purchased Eurofins (Celle Lévescault)
How it was run: as §1

[8] = molecular target: T8, 380 human recombinant protein kinases (Homo sapiens, UniProt Q9BXA7); conditions: TSSK1(h), read-out: Inhibition rate (%)
T8 construct: purchased Eurofins (Celle Lévescault)
T8 sequence (Q9BXA7 1-367): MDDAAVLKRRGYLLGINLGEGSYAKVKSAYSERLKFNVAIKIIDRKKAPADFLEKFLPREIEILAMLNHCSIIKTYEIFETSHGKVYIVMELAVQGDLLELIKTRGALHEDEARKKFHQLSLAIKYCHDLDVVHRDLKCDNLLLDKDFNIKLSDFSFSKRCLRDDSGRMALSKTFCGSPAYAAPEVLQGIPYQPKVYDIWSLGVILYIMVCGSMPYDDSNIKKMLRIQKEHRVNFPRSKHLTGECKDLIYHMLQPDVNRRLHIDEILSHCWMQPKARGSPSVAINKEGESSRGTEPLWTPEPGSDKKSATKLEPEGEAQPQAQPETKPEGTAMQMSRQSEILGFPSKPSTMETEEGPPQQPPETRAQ
How it was run: as §1

[9] = molecular target: T9, 380 human recombinant protein kinases (Homo sapiens, UniProt Q9BYP7); conditions: WNK3(h), read-out: Inhibition rate (%)
T9 construct: purchased Eurofins (Celle Lévescault)
How it was run: as §1

[10] = molecular target: T10, 380 human recombinant protein kinases (Homo sapiens, UniProt Q9Y2K2); conditions: SIK3(h), read-out: Inhibition rate (%)
T10 construct: purchased Eurofins (Celle Lévescault)
How it was run: as §1

T6 sequence (Q13315 whole entry): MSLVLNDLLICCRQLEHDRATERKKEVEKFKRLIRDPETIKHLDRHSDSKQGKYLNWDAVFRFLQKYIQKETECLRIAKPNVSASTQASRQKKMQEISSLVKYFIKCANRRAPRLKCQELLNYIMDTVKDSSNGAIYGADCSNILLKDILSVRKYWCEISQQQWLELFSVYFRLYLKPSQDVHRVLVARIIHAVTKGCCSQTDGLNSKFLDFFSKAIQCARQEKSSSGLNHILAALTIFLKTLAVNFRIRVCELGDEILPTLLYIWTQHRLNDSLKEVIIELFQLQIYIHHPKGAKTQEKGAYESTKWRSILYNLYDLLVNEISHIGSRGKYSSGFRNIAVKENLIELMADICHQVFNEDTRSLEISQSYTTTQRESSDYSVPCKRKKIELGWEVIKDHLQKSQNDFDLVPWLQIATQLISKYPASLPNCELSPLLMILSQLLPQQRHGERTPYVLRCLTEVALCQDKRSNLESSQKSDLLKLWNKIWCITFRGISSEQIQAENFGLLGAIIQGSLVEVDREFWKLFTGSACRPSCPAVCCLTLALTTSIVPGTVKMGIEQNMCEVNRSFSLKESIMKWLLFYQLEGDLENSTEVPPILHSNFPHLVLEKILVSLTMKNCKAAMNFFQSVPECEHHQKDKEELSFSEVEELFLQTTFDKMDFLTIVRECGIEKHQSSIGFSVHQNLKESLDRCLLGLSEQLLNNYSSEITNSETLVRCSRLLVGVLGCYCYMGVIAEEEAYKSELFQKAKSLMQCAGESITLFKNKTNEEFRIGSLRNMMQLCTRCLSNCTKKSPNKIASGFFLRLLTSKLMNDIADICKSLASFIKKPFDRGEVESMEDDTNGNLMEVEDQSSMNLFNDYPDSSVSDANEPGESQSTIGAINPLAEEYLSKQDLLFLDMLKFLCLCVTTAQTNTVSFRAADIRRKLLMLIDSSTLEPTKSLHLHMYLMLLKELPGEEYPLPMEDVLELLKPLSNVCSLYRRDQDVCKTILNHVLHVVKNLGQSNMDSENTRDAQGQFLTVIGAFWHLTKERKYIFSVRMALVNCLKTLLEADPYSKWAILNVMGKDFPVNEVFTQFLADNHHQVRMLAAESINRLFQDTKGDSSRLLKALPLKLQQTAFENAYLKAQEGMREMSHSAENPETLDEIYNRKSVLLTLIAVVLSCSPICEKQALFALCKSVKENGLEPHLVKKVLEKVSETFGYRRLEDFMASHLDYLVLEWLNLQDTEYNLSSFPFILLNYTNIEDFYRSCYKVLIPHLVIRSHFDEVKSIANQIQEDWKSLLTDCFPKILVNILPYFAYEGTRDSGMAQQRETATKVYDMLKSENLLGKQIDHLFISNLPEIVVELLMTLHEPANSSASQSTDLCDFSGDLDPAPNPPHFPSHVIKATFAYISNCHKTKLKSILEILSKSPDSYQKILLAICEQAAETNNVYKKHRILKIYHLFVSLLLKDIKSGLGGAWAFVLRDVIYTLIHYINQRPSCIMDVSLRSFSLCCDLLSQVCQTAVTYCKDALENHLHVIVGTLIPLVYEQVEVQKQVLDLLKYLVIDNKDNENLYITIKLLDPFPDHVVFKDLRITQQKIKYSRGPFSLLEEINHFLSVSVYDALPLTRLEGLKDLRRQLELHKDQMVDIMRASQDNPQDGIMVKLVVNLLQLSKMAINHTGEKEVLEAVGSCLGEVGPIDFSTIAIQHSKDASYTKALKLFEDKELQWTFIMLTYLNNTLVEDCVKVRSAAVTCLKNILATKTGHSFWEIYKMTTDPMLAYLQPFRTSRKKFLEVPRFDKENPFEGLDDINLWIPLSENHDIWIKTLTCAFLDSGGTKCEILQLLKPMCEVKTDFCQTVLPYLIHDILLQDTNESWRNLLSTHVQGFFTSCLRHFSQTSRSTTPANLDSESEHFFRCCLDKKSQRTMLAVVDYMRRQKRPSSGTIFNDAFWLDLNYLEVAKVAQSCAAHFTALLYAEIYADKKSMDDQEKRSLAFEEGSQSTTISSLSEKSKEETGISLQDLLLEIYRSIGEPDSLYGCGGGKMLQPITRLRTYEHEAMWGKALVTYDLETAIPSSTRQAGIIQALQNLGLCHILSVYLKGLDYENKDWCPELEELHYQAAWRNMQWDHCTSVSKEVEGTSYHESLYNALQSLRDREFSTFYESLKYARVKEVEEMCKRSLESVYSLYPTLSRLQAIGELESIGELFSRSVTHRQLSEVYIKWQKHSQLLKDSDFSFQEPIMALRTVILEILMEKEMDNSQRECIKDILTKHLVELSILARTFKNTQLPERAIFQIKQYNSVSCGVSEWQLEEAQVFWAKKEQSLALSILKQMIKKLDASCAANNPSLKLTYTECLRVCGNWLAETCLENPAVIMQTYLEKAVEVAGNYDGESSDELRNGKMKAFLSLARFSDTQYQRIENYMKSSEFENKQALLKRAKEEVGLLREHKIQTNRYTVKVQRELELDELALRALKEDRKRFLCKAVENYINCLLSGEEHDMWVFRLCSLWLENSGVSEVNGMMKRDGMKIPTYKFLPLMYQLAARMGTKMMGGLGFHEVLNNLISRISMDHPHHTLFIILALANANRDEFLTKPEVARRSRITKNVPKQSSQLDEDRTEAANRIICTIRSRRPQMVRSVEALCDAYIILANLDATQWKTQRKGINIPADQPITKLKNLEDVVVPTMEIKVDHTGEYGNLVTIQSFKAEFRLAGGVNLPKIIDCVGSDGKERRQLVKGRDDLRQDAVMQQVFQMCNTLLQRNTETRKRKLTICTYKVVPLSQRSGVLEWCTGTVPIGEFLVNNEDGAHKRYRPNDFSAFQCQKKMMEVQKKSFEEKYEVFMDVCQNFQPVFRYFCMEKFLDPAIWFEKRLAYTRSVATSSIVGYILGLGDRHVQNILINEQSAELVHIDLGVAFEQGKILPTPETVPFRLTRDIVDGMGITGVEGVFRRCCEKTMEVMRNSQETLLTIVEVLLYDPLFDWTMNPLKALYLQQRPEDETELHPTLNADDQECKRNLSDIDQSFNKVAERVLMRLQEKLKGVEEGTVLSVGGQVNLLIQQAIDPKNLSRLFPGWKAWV
T2 sequence (P04629 33-796): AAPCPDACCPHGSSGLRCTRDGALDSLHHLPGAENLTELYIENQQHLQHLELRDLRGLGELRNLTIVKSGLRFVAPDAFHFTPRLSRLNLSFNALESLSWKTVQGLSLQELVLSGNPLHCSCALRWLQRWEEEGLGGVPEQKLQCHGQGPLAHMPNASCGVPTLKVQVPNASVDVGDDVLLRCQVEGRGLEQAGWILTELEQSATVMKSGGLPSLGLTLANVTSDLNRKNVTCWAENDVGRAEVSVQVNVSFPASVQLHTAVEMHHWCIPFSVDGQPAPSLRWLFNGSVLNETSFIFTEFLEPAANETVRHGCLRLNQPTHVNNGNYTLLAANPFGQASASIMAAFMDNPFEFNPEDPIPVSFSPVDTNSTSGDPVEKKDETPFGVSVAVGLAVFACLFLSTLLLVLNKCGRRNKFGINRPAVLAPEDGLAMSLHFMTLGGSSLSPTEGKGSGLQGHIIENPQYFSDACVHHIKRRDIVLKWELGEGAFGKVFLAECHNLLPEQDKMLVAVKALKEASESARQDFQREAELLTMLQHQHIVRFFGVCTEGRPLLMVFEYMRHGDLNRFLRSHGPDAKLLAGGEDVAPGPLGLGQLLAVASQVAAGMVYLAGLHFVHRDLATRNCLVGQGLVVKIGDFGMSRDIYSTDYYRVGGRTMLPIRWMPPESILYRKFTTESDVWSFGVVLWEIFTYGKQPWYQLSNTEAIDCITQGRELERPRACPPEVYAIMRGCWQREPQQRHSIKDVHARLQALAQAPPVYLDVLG
T3 sequence (P22607 23-806): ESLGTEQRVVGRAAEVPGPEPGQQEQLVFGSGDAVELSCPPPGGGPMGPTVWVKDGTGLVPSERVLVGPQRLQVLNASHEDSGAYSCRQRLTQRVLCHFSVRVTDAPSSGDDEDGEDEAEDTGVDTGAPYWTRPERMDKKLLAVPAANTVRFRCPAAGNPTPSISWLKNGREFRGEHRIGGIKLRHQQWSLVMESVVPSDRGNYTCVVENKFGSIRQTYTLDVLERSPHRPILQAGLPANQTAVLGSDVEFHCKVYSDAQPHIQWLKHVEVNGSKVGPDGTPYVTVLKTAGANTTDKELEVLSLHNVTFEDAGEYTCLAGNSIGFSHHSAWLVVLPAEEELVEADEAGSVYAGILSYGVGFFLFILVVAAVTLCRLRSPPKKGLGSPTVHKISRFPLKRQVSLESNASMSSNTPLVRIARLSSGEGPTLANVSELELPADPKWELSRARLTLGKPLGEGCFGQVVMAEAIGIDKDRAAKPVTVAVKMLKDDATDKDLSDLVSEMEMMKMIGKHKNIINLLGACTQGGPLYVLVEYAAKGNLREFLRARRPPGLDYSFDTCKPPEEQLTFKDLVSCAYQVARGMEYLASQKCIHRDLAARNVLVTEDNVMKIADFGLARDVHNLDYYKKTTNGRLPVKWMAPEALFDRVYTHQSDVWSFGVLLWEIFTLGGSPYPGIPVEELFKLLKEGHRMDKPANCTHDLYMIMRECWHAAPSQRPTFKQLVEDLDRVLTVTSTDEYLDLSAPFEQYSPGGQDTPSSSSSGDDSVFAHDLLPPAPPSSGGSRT

C=CC(=O)Nc1cc(-c2cc(-c3cc4c([nH]3)CCNC4=O)ccn2)ccc1OC(F)(F)F [compound 11]
inhibition at 0.01 µM ([1]; 10 nM): 10%
inhibition at 0.1 µM ([1]; 100 nM): 6%
inhibition at 1 µM ([1]; 1000 nM): 6%
inhibition at 0.01 µM ([2]; 10 nM): -6%
inhibition at 0.1 µM ([2]; 100 nM): -1%
inhibition at 1 µM ([2]; 1000 nM): 15%
inhibition at 0.01 µM ([3]; 10 nM): 2%
inhibition at 0.1 µM ([3]; 100 nM): 9%
inhibition at 1 µM ([3]; 1000 nM): 0%
inhibition at 0.01 µM ([4]; 10 nM): 6%
inhibition at 0.1 µM ([4]; 100 nM): -2%
inhibition at 1 µM ([4]; 1000 nM): -1%
inhibition at 0.01 µM ([5]; 10 nM): -1%
inhibition at 0.1 µM ([5]; 100 nM): 4%
inhibition at 1 µM ([5]; 1000 nM): 1%
inhibition at 0.01 µM ([6]; 10 nM): -3%
inhibition at 0.1 µM ([6]; 100 nM): -6%
inhibition at 1 µM ([6]; 1000 nM): -9%
inhibition at 0.01 µM ([7]; 10 nM): -2%
inhibition at 0.1 µM ([7]; 100 nM): -2%
inhibition at 1 µM ([7]; 1000 nM): -3%
inhibition at 0.01 µM ([8]; 10 nM): 1%
inhibition at 0.1 µM ([8]; 100 nM): 2%
inhibition at 1 µM ([8]; 1000 nM): 7%
inhibition at 0.01 µM ([9]; 10 nM): 0%
inhibition at 0.1 µM ([9]; 100 nM): 7%
inhibition at 1 µM ([9]; 1000 nM): 9%
inhibition at 0.01 µM ([10]; 10 nM): 6%
inhibition at 0.1 µM ([10]; 100 nM): 1%
inhibition at 1 µM ([10]; 1000 nM): 12%
